{"source": "patent US11759437B2", "about": "“Preventive and therapeutic approach for aberrant cell differentiation and ISR-associated diseases” (The University of Hong Kong, priority 2016, dated 2023)", "key": {"[1]": {"system": "congenital skeletal dysplasias", "settings": "cited from earlier work"}, "[2]": {"system": "Mouse models of chondrodysplasia", "settings": "cited from earlier work"}, "[3]": {"system": "Fgf21", "test": "Fgf21 expression after ER stress inducer tunicamycin in fibroblasts and ATDC5 cells", "format": "cell-based, mouse", "settings": "NIH3T3 and MEF cells and ATDC5 cells, tunicamycin treatment", "experimental": "FGF21 is a hormone with roles in glucose and lipid metabolism (74) and plays an survival role in the response to diverse stressful conditions, such as amino acid deprivation, mitochondrial stress and ER stress associated with diseases such as diabetes, cardiovascular disease (75-77).\nQuantitative PCR was performed using SYBR-Green master mixture according to the manufacturer's instruction (Takara). Appropriate amounts of cDNA (or DNA) and primers were mixed with distilled water up to 10 μl and combined with equal amount of SYBR-Green master mixture. The reaction was run on the StepOne Real Time PCR system (Applied Biosystems, A&B). The Ct (cycle threshold) is defined as the cycle number required for the fluorescent signal to cross the threshold. The relative expression levels of target genes are calculated by normalizing to the expression level of GAPDH using delta-delta-Ct (Relative expression level=2^−(Cttarget−CtGapdh)). Melting curve was also measured to detect the specificity of the primers."}, "[4]": {"system": "prion-infected mice", "settings": "cited from earlier work"}, "[5]": {"system": "13del mice", "format": "in vivo"}, "[6]": {"system": "wild-type mice", "test": "ISRIB treatment of wild-type littermates", "format": "in vivo, mouse", "experimental": "The potential of ISRIB to modify the chondrodysplasia phenotype was tested by treating 13del and wild-type littermates with ISRIB or vehicle twice daily by intraperitoneal injection from E13.5 (onset of expression of 13del transgene) to postnatal day 20 (p20) (FIG. 8A).\nISRIB (SML0843, Sigma) was dissolved in DMSO to make a 5 mg/ml stock and stored at 4-degree. Animals were intraperitoneally injected with ISRIB ((103, 104) (2.5 mg/kg, diluted in 0.9% saline) or vehicle (5% DMSO in saline) from E13.5 till p20 stage. The animals were collected at p10 and p20 stages for further analysis."}, "[7]": {"system": "mice", "settings": "cited from earlier work"}, "[8]": {"settings": "13del mice, after 20-days ISRIB treatment"}}, "data": [{"compound": "Growth hormone: Growth hormone (GH) therapy used to treat dwarfism", "values": [{"measurement": "effect in cases with severe spinal deformities", "setting": "[1]; in vivo", "result": "worsened kyphosis and lordosis"}, {"measurement": "efficacy for height gain", "setting": "[1]; most congenital skeletal dysplasias", "result": "ineffective"}]}, {"compound": "O=C(O)CCCc1ccccc1", "note": "[phenylbutyric acid]", "values": [{"measurement": "efficacy in chondrodysplasia", "setting": "[2]", "result": "ineffective"}]}, {"compound": "tunicamycin", "values": [{"measurement": "increase of Fgf21 expression", "setting": "[3]", "result": "> 100", "unit": "fold"}]}, {"compound": "Cn1cc(-c2ccc3c(c2)CCN3C(=O)Cc2cccc(C(F)(F)F)c2)c2c(N)ncnc21", "note": "[GSK2606414]", "values": [{"measurement": "effect of restoring protein synthesis through PERK inhibition", "setting": "[4]", "result": "neuroprotective"}, {"measurement": "side effects", "setting": "[4]", "result": "weight loss and pancreatic toxicity"}]}, {"compound": "O=C(COc1ccc(Cl)cc1)N[C@H]1CC[C@H](NC(=O)COc2ccc(Cl)cc2)CC1", "note": "[ISRIB]", "values": [{"measurement": "amount of ATF4 and CHOP protein", "setting": "[5]; 13del HZ, p10", "result": "reduced"}, {"measurement": "transcripts and protein level of downstream targets (ATF3, ERO1l and FGF21)", "setting": "[5]; 13del HZ, p10", "result": "down-regulation"}, {"measurement": "Atf3+ cells in L3-L6 NP, growth plates or endplates", "setting": "[5]; 13del lumbar IVD, after ISRIB treatment", "result": "no Atf3^+ cell can be detected"}, {"measurement": "ectopic NP expression of Opn", "setting": "[5]; 13del lumbar NP, 20-days treatment", "result": "greatly reduced"}, {"measurement": "number of reprogrammed chondrocytes in the growth plates and endplates", "setting": "[5]; 13del mice", "result": "reduced"}, {"measurement": "chondrocyte-like cells present in iAF", "setting": "[5]; [8]", "result": "fewer"}, {"measurement": "regularity of inner annulus fibrosus (iAF)", "setting": "[5]; [8]", "result": "more regular"}, {"measurement": "Bip transcripts in HZ", "setting": "[5]; 13del mice, p10, in situ hybridization", "result": "not affected"}, {"measurement": "HZ expansion in tail intervertebral disc growth plates", "setting": "[5]; 13del mice, p10 and p20", "result": "reduced"}, {"measurement": "HZ expansion in the limb growth plates", "setting": "[5]; 13del mice, p10 and p20", "result": "greatly reduced"}, {"measurement": "number of SOX9+, Col2a1+ and Ppr+ cells in the HZ", "setting": "[5]; 13del mice, p10 and p20", "result": "diminished"}, {"measurement": "number of Sox9+ and Col2a1+ premature cells in tail intervertebral disc growth plates", "setting": "[5]; 13del mice, p10 and p20", "result": "decreased"}, {"measurement": "IVD abnormalities in 13del lumbar spine (endplate expansion, iAF structure)", "setting": "[5]; ISRIB 2.5 mg/kg", "result": "eased"}, {"measurement": "overall adverse effect in treated mice", "setting": "[5]; ISRIB 2.5 mg/kg i.p., E13.5 to p20", "result": "without any obvious adverse effect"}, {"measurement": "apoptosis in 13del HC", "setting": "[5]; TUNEL", "result": "did not induce apoptosis"}, {"measurement": "dwarfism of 13del mice (body length)", "setting": "[5]; new born to juvenile stages, ISRIB 2.5 mg/kg i.p. twice daily, E13.5 to p20", "result": "markedly reduced"}, {"measurement": "skeletal deformities, radiographic analyses (length of tibia/femur and spine, genu varum, pelvic bone orientation, coxa vara)", "setting": "[5]; p20, ISRIB 2.5 mg/kg i.p.", "result": "ameliorated"}, {"measurement": "effect on the limb growth plates in wild-type mice", "setting": "[6]; histology, p10", "result": "no observable effect"}, {"measurement": "adverse effects on weight gain or body growth", "setting": "[6]; wild-type mice, ISRIB 2.5 mg/kg i.p. twice daily, E13.5 to p20", "result": "no adverse effects"}, {"measurement": "neurotrophic effects", "setting": "[7]", "result": "significant neurotrophic effects"}, {"measurement": "overall toxicity", "setting": "[7]", "result": "no overall toxicity"}, {"measurement": "pharmacokinetic properties", "setting": "[7]", "result": "acceptable"}]}]}
